#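 Step 1: Grow cells in 96-well plates. Step 2: Expose to compound for 48 hours at 5 concentrations. Step 3: Interpolate endpoints linearly; if unreached, use highest concentration. The concentration for 50% growth inhibition is given as GI50. TGI denotes the concentration required for complete inhibition of growth.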
# Tests used:
# Experiment in all cases: NCI tumour cell line growth inhibition, 48 h
# [1] = system: U251 CNS
# [2] = system: HOP-62 NSCLC
# [3] = system: MDA-MB-435
# [4] = system: NCI-H226 lung
# [5] = system: PC-3 prostate
# [6] = system: A498 renal
# [7] = system: 786-0 renal
# [8] = system: DU-145 prostate
# [9] = system: BT-549 breast
# [10] = system: SK-MEL-5 melanoma
# [11] = system: OVCAR-3 ovarian
# [12] = system: HS 578T breast
# [13] = system: SK-OV-3 ovarian
# [14] = system: OVCAR-4 ovarian
# [15] = system: TK-10 renal
# [16] = system: UACC-257 melanoma
# [17] = system: RXF 393 renal
# [18] = system: SF-295 CNS
# [19] = system: M14 melanoma
# [20] = system: ACHN renal
compound,measurement,setting,value
Cc1cc(N2CCCCCC2)nc(NC2CCCC(Nc3ccnc4cc(Cl)ccc34)C2)n1 (stereo not given),GI50,[1],1470 nM
same,TGI,[1],2780 nM
same,GI50,[2],1630 nM
same,TGI,[2],3150 nM
same,GI50,[3],1630 nM
same,TGI,[3],3080 nM
same,GI50,[4],2010 nM
same,TGI,[4],3760 nM
same,GI50,[5],1630 nM
same,TGI,[5],3200 nM
same,GI50,[6],1440 nM
same,TGI,[6],2860 nM
same,GI50,[7],1270 nM
same,TGI,[7],2600 nM
same,GI50,[8],1610 nM
same,TGI,[8],2990 nM
same,GI50,[9],1440 nM
same,TGI,[9],3090 nM
same,GI50,[10],1670 nM
same,TGI,[10],3040 nM
same,GI50,[11],1760 nM
same,TGI,[11],3390 nM
same,GI50,[12],1800 nM
same,TGI,[12],4420 nM
same,GI50,[13],1770 nM
same,TGI,[13],3230 nM
same,GI50,[14],1560 nM
same,TGI,[14],3250 nM
same,GI50,[15],1990 nM
same,TGI,[15],3540 nM
same,GI50,[16],2170 nM
same,TGI,[16],3700 nM
same,GI50,[17],1200 nM
same,TGI,[17],2580 nM
same,GI50,[18],1450 nM
same,TGI,[18],2840 nM
same,GI50,[19],1190 nM
same,TGI,[19],2740 nM
same,GI50,[20],1540 nM
same,TGI,[20],2870 nM

# Reference: PubChem BioAssay (NCI)
